Measured values from a compilation of properties of binary mixtures (doi:10.1039/c5cp02799c).

Assay: xn = mol fraction of the nth substance listed
Conditions: 101.3 kPa

CC[P+](CC)(CC)CCOC.O=S(=O)([N-]S(=O)(=O)C(F)(F)F)C(F)(F)F + O=S(=O)([N-]S(=O)(=O)C(F)(F)F)C(F)(F)F.[Li+]
electrical conductivity (298.2 K, x2 = 0.39): 0.51 S/m
viscosity (298.2 K, x2 = 0.39): 620 mPa·s
viscosity (300.1 K, x2 = 0.39): 540 mPa·s
viscosity (300.2 K, x2 = 0.25): 150 mPa·s
electrical conductivity (300.2 K, x2 = 0.39): 0.55 S/m
electrical conductivity (300.3 K, x2 = 0.25): 1.1 S/m
viscosity (306.1 K, x2 = 0.39): 360 mPa·s
electrical conductivity (306.2 K, x2 = 0.25): 1.2 S/m
electrical conductivity (306.2 K, x2 = 0.39): 0.68 S/m
viscosity (306.3 K, x2 = 0.25): 110 mPa·s
viscosity (312.2 K, x2 = 0.25): 81 mPa·s
electrical conductivity (312.3 K, x2 = 0.25): 1.3 S/m
viscosity (312.3 K, x2 = 0.39): 250 mPa·s
viscosity (318.1 K, x2 = 0.39): 180 mPa·s
electrical conductivity (318.2 K, x2 = 0.39): 0.91 S/m
electrical conductivity (318.3 K, x2 = 0.25): 1.4 S/m
viscosity (318.3 K, x2 = 0.25): 61 mPa·s
viscosity (324.2 K, x2 = 0.25): 47 mPa·s
electrical conductivity (324.2 K, x2 = 0.39): 1 S/m
viscosity (324.2 K, x2 = 0.39): 130 mPa·s
electrical conductivity (324.3 K, x2 = 0.25): 1.4 S/m
electrical conductivity (330.2 K, x2 = 0.39): 1.1 S/m
viscosity (330.2 K, x2 = 0.39): 95 mPa·s
electrical conductivity (330.3 K, x2 = 0.25): 1.5 S/m
viscosity (330.3 K, x2 = 0.25): 37 mPa·s
electrical conductivity (336.2 K, x2 = 0.39): 1.2 S/m
viscosity (336.2 K, x2 = 0.39): 72 mPa·s
electrical conductivity (336.3 K, x2 = 0.25): 1.6 S/m
viscosity (336.3 K, x2 = 0.25): 30 mPa·s
viscosity (341.1 K, x2 = 0.39): 58 mPa·s
viscosity (341.3 K, x2 = 0.25): 25 mPa·s
electrical conductivity (348.2 K, x2 = 0.25): 1.7 S/m
viscosity (348.2 K, x2 = 0.25): 20 mPa·s
electrical conductivity (348.2 K, x2 = 0.39): 1.3 S/m
viscosity (348.2 K, x2 = 0.39): 45 mPa·s
viscosity (355.2 K, x2 = 0.39): 34 mPa·s
viscosity (361.2 K, x2 = 0.39): 28 mPa·s
electrical conductivity (361.3 K, x2 = 0.25): 1.8 S/m
viscosity (361.3 K, x2 = 0.25): 14 mPa·s
viscosity (374.2 K, x2 = 0.39): 19 mPa·s
viscosity (374.3 K, x2 = 0.25): 10 mPa·s

CCCCC[P+](CC)(CC)CC.O=S(=O)([N-]S(=O)(=O)C(F)(F)F)C(F)(F)F + O=S(=O)([N-]S(=O)(=O)C(F)(F)F)C(F)(F)F.[Li+]
electrical conductivity (298.2 K, x2 = 0.25): 0.062 S/m
electrical conductivity (298.2 K, x2 = 0.39): 0.016 S/m
viscosity (298.2 K, x2 = 0.39): 1300 mPa·s
viscosity (298.3 K, x2 = 0.25): 310 mPa·s
viscosity (300.2 K, x2 = 0.25): 270 mPa·s
electrical conductivity (300.2 K, x2 = 0.39): 0.019 S/m
electrical conductivity (300.3 K, x2 = 0.25): 0.075 S/m
electrical conductivity (306.2 K, x2 = 0.25): 0.1 S/m
electrical conductivity (306.2 K, x2 = 0.39): 0.028 S/m
viscosity (306.2 K, x2 = 0.39): 670 mPa·s
viscosity (306.3 K, x2 = 0.25): 180 mPa·s
electrical conductivity (312.2 K, x2 = 0.39): 0.041 S/m
electrical conductivity (312.3 K, x2 = 0.25): 0.14 S/m
viscosity (312.3 K, x2 = 0.25): 130 mPa·s
viscosity (312.3 K, x2 = 0.39): 440 mPa·s
electrical conductivity (318.2 K, x2 = 0.39): 0.058 S/m
viscosity (318.2 K, x2 = 0.39): 290 mPa·s
electrical conductivity (318.3 K, x2 = 0.25): 0.18 S/m
viscosity (318.3 K, x2 = 0.25): 95 mPa·s
electrical conductivity (324.3 K, x2 = 0.25): 0.23 S/m
viscosity (324.3 K, x2 = 0.25): 71 mPa·s
electrical conductivity (330.3 K, x2 = 0.25): 0.29 S/m
viscosity (330.4 K, x2 = 0.25): 54 mPa·s
electrical conductivity (336.2 K, x2 = 0.39): 0.15 S/m
viscosity (336.2 K, x2 = 0.39): 110 mPa·s
viscosity (341.2 K, x2 = 0.39): 85 mPa·s
electrical conductivity (348.2 K, x2 = 0.39): 0.24 S/m
viscosity (348.2 K, x2 = 0.39): 63 mPa·s
viscosity (355.2 K, x2 = 0.39): 47 mPa·s
viscosity (355.3 K, x2 = 0.25): 21 mPa·s
electrical conductivity (361.3 K, x2 = 0.25): 0.73 S/m
viscosity (361.4 K, x2 = 0.25): 18 mPa·s
viscosity (374.2 K, x2 = 0.25): 12 mPa·s
viscosity (374.2 K, x2 = 0.39): 24 mPa·s
